Test results reported in patent US8729082B2, “Substituted imidazoquinoxalines” (Bayer Intellectual Property GmbH, priority 2009, dated 2014).
pIC50: −log10 of the molar value.

target: T1, human kinase Mps-1 (Homo sapiens, UniProt P33981); assay: Mps-1 kinase assay (HTRF); type: biochemical; details: lowATP; mean; read-out: Mps1 lowATP mean IC50
T1 construct: N-terminally GST-tagged human full length recombinant Mps-1 kinase; purchased Invitrogen, Karslruhe, Germany PV4071
T1 sequence (P33981 1-857): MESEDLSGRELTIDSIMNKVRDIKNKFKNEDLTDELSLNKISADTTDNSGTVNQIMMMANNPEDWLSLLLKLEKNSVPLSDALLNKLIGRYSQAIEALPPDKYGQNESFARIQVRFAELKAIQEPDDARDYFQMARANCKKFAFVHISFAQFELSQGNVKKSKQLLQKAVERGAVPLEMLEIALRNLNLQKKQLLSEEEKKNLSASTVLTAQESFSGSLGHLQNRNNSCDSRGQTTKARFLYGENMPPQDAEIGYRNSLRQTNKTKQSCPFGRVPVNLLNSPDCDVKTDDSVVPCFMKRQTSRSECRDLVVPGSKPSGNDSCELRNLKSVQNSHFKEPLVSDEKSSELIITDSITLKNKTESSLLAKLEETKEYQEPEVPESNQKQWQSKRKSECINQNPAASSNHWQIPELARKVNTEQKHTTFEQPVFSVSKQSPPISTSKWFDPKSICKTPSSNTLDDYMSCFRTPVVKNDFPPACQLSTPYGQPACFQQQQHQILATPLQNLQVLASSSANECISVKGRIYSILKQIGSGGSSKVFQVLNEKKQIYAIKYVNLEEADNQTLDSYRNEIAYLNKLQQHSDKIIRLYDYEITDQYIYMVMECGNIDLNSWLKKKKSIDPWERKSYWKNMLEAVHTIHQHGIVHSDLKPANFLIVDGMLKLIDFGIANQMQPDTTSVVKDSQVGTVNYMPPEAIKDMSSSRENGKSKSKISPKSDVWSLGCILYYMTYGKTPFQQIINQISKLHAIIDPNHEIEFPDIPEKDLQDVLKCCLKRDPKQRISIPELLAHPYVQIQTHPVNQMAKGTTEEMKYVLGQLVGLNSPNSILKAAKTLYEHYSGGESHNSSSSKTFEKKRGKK
Procedure, shortened: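 HTRF readout: EDTA-stopped reactions incubated 1 h with europium anti-phospho(Ser/Thr) antibody and streptavidin-XLent, emission ratio 665/620 nm after 350 nm excitation. Kinase step: compound pre-bound 15 min to ~1 nM GST-Mps-1, then 60 min at 22 °C with ATP and biotin-peptide substrate; inhibition scaled between no-inhibitor (0%) and no-enzyme (100%) controls.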

How did the pIC50 turn out when `CNC(=O)Nc1ccc(-c2cnc3c(NCCCn4ccnc4)nc4cc(C)c(C)cc4n23)cc1` [Example 2-169, 1-[4-(4-{[3-(1H-imidazol-1-yl)propyl]amino}-7,8-dimethylimidazo[1,2-a]quinoxalin-1-yl)phenyl]-3-methylurea] was run?
Its pIC50 is 6.56.

`CNC(=O)Nc1ccc(-c2cnc3c(NCC4CC4)nc4cc(C)c(C)cc4n23)cc1` [Example 2-170, 1-(4-{4-[(cyclopropylmethyl)amino]-7,8-dimethylimidazo[1,2-a]quinoxalin-1-yl}phenyl)-3-methylurea] was tested. Which pIC50 did it give?
Its pIC50 is 6.51.

`CNC(=O)Nc1ccc(-c2cnc3c(NCc4cccnc4)nc4cc(C)c(C)cc4n23)cc1` [Example 2-171, 1-(4-{7,8-dimethyl-4-[(pyridin-3-ylmethyl)amino]imidazo[1,2-a]quinoxalin-1-yl}phenyl)-3-methylurea] was tested. Which pIC50 did it give?
The pIC50 was 6.55.

`CNC(=O)Nc1ccc(-c2cnc3c(NCc4ccncc4)nc4cc(C)c(C)cc4n23)cc1` [Example 2-172, 1-(4-{7,8-dimethyl-4-[(pyridin-4-ylmethyl)amino]imidazo[1,2-a]quinoxalin-1-yl}phenyl)-3-methylurea] was tested. Which pIC50 did it give?
Its pIC50 is 6.58.

With `CNC(=O)Nc1ccc(-c2cnc3c(NCC(C)C)nc4cc(C)c(C)cc4n23)cc1` [Example 2-173, 1-(4-{7,8-dimethyl-4-[(2-methylpropyl)amino]imidazo[1,2-a]quinoxalin-1-yl}phenyl)-3-methylurea] as the molecule, how does the pIC50 read?
Its pIC50 is 6.68.

How did the pIC50 turn out when `CNC(=O)Nc1ccc(-c2cnc3c(NCCC(N)=O)nc4cc(C)c(C)cc4n23)cc1` [Example 2-174, N^3-(7,8-dimethyl-1-{4-[(methylcarbamoyl)amino]phenyl}imidazo[1,2-a]quinoxalin-4-yl)-beta-alaninamide] was run?
Its pIC50 is 6.11.

How did the pIC50 turn out when `CNC(=O)Nc1ccc(-c2cnc3c(NCc4ccnn4C)nc4cc(C)c(C)cc4n23)cc1` [Example 2-175, 1-[4-(7,8-dimethyl-4-{[(1-methyl-1H-pyrazol-5-yl)methyl]amino}imidazo[1,2-a]quinoxalin-1-yl)phenyl]-3-methylurea] was run?
Its pIC50 is 6.70.

How did the pIC50 turn out when `CNC(=O)Nc1ccc(-c2cnc3c(NCc4cnn(C)c4)nc4cc(C)c(C)cc4n23)cc1` [Example 2-176, 1-[4-(7,8-dimethyl-4-{[(1-methyl-1H-pyrazol-4-yl)methyl]amino}imidazo[1,2-a]quinoxalin-1-yl)phenyl]-3-methylurea] was run?
The pIC50 was 6.21.

With `CNC(=O)Nc1ccc(-c2cnc3c(NCCS(N)(=O)=O)nc4cc(C)c(C)cc4n23)cc1` [Example 2-177, 2-[(7,8-dimethyl-1-{4-[(methylcarbamoyl)amino]phenyl}imidazo[1,2-a]quinoxalin-4-yl)amino]ethanesulfonamide] as the molecule, how does the pIC50 read?
Its pIC50 is 5.65.

With `CCCNc1nc2cc(C)c(C)cc2n2c(-c3ccc(C(=O)NC4CC4)c(Cl)c3)cnc12` [Example 2-178, 2-chloro-N-cyclopropyl-4-[7,8-dimethyl-4-(propylamino)imidazo[1,2-a]quinoxalin-1-yl]benzamide] as the molecule, how does the pIC50 read?
Its pIC50 is 7.61.

`Cc1cc2nc(NCCO)c3ncc(-c4ccc(C(=O)NC5CC5)c(Cl)c4)n3c2cc1C` [Example 2-179, 2-chloro-N-cyclopropyl-4-{4-[(2-hydroxyethyl)amino]-7,8-dimethylimidazo[1,2-a]quinoxalin-1-yl}benzamide] was tested. Which pIC50 did it give?
Its pIC50 is 6.89.

With `Cc1cc2nc(NCCCN3CCOCC3)c3ncc(-c4ccc(C(=O)NC5CC5)c(Cl)c4)n3c2cc1C` [Example 2-180, 2-chloro-N-cyclopropyl-4-(7,8-dimethyl-4-{[3-(morpholin-4-yl)propyl]amino}imidazo[1,2-a]quinoxalin-1-yl)benzamide] as the molecule, how does the pIC50 read?
The pIC50 was 6.33.

With `Cc1cc2nc(NCCC(C)C)c3ncc(-c4ccc(C(=O)NC5CC5)c(Cl)c4)n3c2cc1C` [Example 2-181, 2-chloro-N-cyclopropyl-4-{7,8-dimethyl-4-[(3-methylbutyl)amino]imidazo[1,2-a]quinoxalin-1-yl}benzamide] as the molecule, how does the pIC50 read?
Its pIC50 is 7.14.

With `Cc1cc2nc(NCCCN3CCCC3=O)c3ncc(-c4ccc(C(=O)NC5CC5)c(Cl)c4)n3c2cc1C` [Example 2-182, 2-chloro-N-cyclopropyl-4-(7,8-dimethyl-4-{[3-(2-oxopyrrolidin-1-yl)propyl]amino}imidazo[1,2-a]quinoxalin-1-yl)benzamide] as the molecule, how does the pIC50 read?
The pIC50 was 6.35.

How did the pIC50 turn out when `COCCNc1nc2cc(C)c(C)cc2n2c(-c3ccc(C(=O)NC4CC4)c(Cl)c3)cnc12` [Example 2-183, 2-chloro-N-cyclopropyl-4-{4-[(2-methoxyethyl)amino]-7,8-dimethylimidazo[1,2-a]quinoxalin-1-yl}benzamide] was run?
The pIC50 was 6.95.

How did the pIC50 turn out when `Cc1cc2nc(NCCCCO)c3ncc(-c4ccc(C(=O)NC5CC5)c(Cl)c4)n3c2cc1C` [Example 2-184, 2-chloro-N-cyclopropyl-4-{4-[(4-hydroxybutyl)amino]-7,8-dimethylimidazo[1,2-a]quinoxalin-1-yl}benzamide] was run?
The pIC50 was 7.48.

How did the pIC50 turn out when `CCNc1nc2cc(C)c(C)cc2n2c(-c3ccc(C(=O)NC4CC4)c(Cl)c3)cnc12` [Example 2-185, 2-chloro-N-cyclopropyl-4-[4-(ethylamino)-7,8-dimethylimidazo[1,2-a]quinoxalin-1-yl]benzamide] was run?
Its pIC50 is 7.01.

`Cc1cc2nc(NCCCO)c3ncc(-c4ccc(C(=O)NC5CC5)c(Cl)c4)n3c2cc1C` [Example 2-186, 2-chloro-N-cyclopropyl-4-{4-[(3-hydroxypropyl)amino]-7,8-dimethylimidazo[1,2-a]quinoxalin-1-yl}benzamide] was tested. Which pIC50 did it give?
The pIC50 was 6.93.

With `CCCCNc1nc2cc(C)c(C)cc2n2c(-c3ccc(C(=O)NC4CC4)c(Cl)c3)cnc12` [Example 2-187, 4-[4-(butylamino)-7,8-dimethylimidazo[1,2-a]quinoxalin-1-yl]-2-chloro-N-cyclopropylbenzamide] as the molecule, how does the pIC50 read?
The pIC50 was 7.57.

`CC(=O)NCCNc1nc2cc(C)c(C)cc2n2c(-c3ccc(C(=O)NC4CC4)c(Cl)c3)cnc12` [Example 2-188, 4-(4-{[2-(acetylamino)ethyl]amino}-7,8-dimethylimidazo[1,2-a]quinoxalin-1-yl)-2-chloro-N-cyclopropylbenzamide] was tested. Which pIC50 did it give?
The pIC50 was 6.27.

`Cc1cc2nc(NCCCn3ccnc3)c3ncc(-c4ccc(C(=O)NC5CC5)c(Cl)c4)n3c2cc1C` [Example 2-189, 2-chloro-N-cyclopropyl-4-(4-{[3-(1H-imidazol-1-yl)propyl]amino}-7,8-dimethylimidazo[1,2-a]quinoxalin-1-yl)benzamide] was tested. Which pIC50 did it give?
The pIC50 was 7.08.

`Cc1cc2nc(NCC3CC3)c3ncc(-c4ccc(C(=O)NC5CC5)c(Cl)c4)n3c2cc1C` [Example 2-190, 2-chloro-N-cyclopropyl-4-{4-[(cyclopropylmethyl)amino]-7,8-dimethylimidazo[1,2-a]quinoxalin-1-yl}benzamide] was tested. Which pIC50 did it give?
Its pIC50 is 7.36.

How did the pIC50 turn out when `Cc1cc2nc(NCc3ccccn3)c3ncc(-c4ccc(C(=O)NC5CC5)c(Cl)c4)n3c2cc1C` [Example 2-191, 2-chloro-N-cyclopropyl-4-{7,8-dimethyl-4-[(pyridin-2-ylmethyl)amino]imidazo[1,2-a]quinoxalin-1-yl}benzamide] was run?
Its pIC50 is 6.60.

How did the pIC50 turn out when `Cc1cc2nc(NCc3cccnc3)c3ncc(-c4ccc(C(=O)NC5CC5)c(Cl)c4)n3c2cc1C` [Example 2-192, 2-chloro-N-cyclopropyl-4-{7,8-dimethyl-4-[(pyridin-3-ylmethyl)amino]imidazo[1,2-a]quinoxalin-1-yl}benzamide] was run?
The pIC50 was 7.45.

With `Cc1cc2nc(NCc3ccncc3)c3ncc(-c4ccc(C(=O)NC5CC5)c(Cl)c4)n3c2cc1C` [Example 2-193, 2-chloro-N-cyclopropyl-4-{7,8-dimethyl-4-[(pyridin-4-ylmethyl)amino]imidazo[1,2-a]quinoxalin-1-yl}benzamide] as the molecule, how does the pIC50 read?
Its pIC50 is 7.29.

How did the pIC50 turn out when `Cc1cc2nc(NCC(C)C)c3ncc(-c4ccc(C(=O)NC5CC5)c(Cl)c4)n3c2cc1C` [Example 2-194, 2-chloro-N-cyclopropyl-4-{7,8-dimethyl-4-[(2-methylpropyl)amino]imidazo[1,2-a]quinoxalin-1-yl}benzamide] was run?
The pIC50 was 7.64.

How did the pIC50 turn out when `Cc1cc2nc(NCCC(N)=O)c3ncc(-c4ccc(C(=O)NC5CC5)c(Cl)c4)n3c2cc1C` [Example 2-195, 4-{4-[(3-amino-3-oxopropyl)amino]-7,8-dimethylimidazo[1,2-a]quinoxalin-1-yl}-2-chloro-N-cyclopropylbenzamide] was run?
Its pIC50 is 6.66.

How did the pIC50 turn out when `COCCCNc1nc2cc(C)c(C)cc2n2c(-c3ccc(C(=O)NC4CC4)c(Cl)c3)cnc12` [Example 2-196, 2-chloro-N-cyclopropyl-4-{4-[(3-methoxypropyl)amino]-7,8-dimethylimidazo[1,2-a]quinoxalin-1-yl}benzamide] was run?
The pIC50 was 6.85.

With `Cc1cc2nc(NCCCNC(=O)OC(C)(C)C)c3ncc(-c4ccc(C(=O)NC5CC5)c(Cl)c4)n3c2cc1C` [Example 2-197, tert-butyl [3-({1-[3-chloro-4-(cyclopropylcarbamoyl)phenyl]-7,8-dimethylimidazo[1,2-a]quinoxalin-4-yl}amino)propyl]carbamate] as the molecule, how does the pIC50 read?
The pIC50 was 7.30.
